Results as given in patent US7560473B2 (Institute of Pharmacology and Toxicology Academy of …, priority 2001, dated 2009).

Columns and labels:
[1] = biological target: T1, ATP-sensitive potassium channels in vascular smooth muscles (Rattus norvegicus, UniProt Q63563); test: Association kinetics of [^3H]P1075 binding in aortic rings; set-up: species or system Wistar rat; conditions: 37° C.; drug M: Compound 1 10^−4, Glibencamide 10^−5, ATP 10^−2, ADP 10^−3, UDP 5 × 10^−5, GTP 10^−3, Ade 10^−3; control 4.36 ± 0.45; means ± SD, n = 4~10
T1 construct: The aorta was cut into about 3-5 mm arterial rings and the vascular endothelium was scraped off; from tissue; host or cells: endothelium-removed aortic rings of male Wistar rats
Source text: Biological activity experiment 4. Allosteric regulation of novel compounds on ATP-sensitive potassium channels in vascular smooth muscles.
To study the allosteric regulation of compound 1 on ATP-sensitive potassium channels in vascular smooth muscles, the radio-labled-ligand was used in the biological activity experiment 4.
1. The allosteric regulation of compound 1 on the binding sites for the selective KATP blocker glibenclamide in vascular smooth muscles was studied as follows: After decapitated, the male Wistar rat (340±20 g) was immediately incised open the thoracic cavity. The aorta was dissected and immersed in the 4° C. buffer containing 10 mM HEPES to wash off the blood, then carefully extirpated the fat, peripheral connective tissues and thrombus. The aorta was cut into about 3-5 mm arterial rings and the vascular endothelium was scraped off with wet tampon. The arterial rings were blotted, weighted and transferred into the tubes containing proper amount of ice colded physiological saline buffer. In the association kinetics experiment, the arterial circles in the tubes were incubated with, compound 1(10^−4M), pinacidil(10^−4M), ATP(10^−2M), ADP(10^−3M), Ade(10^−3M), […] and equal volume of buffer respectively for 10 min in 25° C. water bath, and then added [^3H]-glibenclamide(3 nM). At 5,10,15,20,30,60,90 and 120 min after incubation, 9 mL ice colded Tris buffer (50 mM) was added to terminate the reaction. After washing off the free and bound [^3H]-glibenclamide, the aorta was blotted, transferred to a scintillator, added 50 uL 30% H2O2 and reacted for 2 h at 80° C. After cooling, 2.5 mL ethyl glycol and 5 mL 1% B-BPD xylene were added in sequence, kept stationary for 8 h and measured under a scintillometer for cpm value. The resulting data were fit into a regression line with In[BEQ/(BEQ-Bt)]vs.t and the parameters for association kinetics were obtained. In the disassociation kinetics experiments, the aorta treated as described above and [^3H]-glibenclamide were incubated for 60 min at 25° C., and then 30 uM glibenclamide was added. 0,5,15,30,60,90 and 120 min later, the cpm values for the complex of [^3H]-glibenclamide and KATP were measured. The resulting data were fit into a regression line with In(B/BEQ)]vs.t and the parameters for disassociation kinetics were obtained. 2. The allosteric regulation of compound 1 on the binding sites for the selective KATP activator P1075 in vascular smooth muscles was studied with the method as described above, but some conditions should be changed as follows: the incubation temperature was 37° C. instead of 25° C.;P1075 was used instead of glibenclamide; In the association kinetics experiments, the time points for sampling were 5,10,15,20,30,45,60 and 90 min, while in the disassociation kinetics experiments, that were 1,3,5,10,20,30,45 and 60 min. Biological activity experiment 5. The effects of compound 1 on the specific binding of high selective activator [^3H]P1075 with ATP-sensitive potassium channels in vascular smooth muscles.

[2] = tested on: outward potassium currents of rat tail arterial SMCs; test: Whole cell recording of outward potassium currents in rat tail arterial SMCs; format: cell-based, Wistar rats; conditions: outward potassium current amplitude before compound application, same cells; X ± SD n = 5
Source text: Biological activity experiments 6. The effects of novel compounds on potassium currents in isolated arterial vascular smooth muscle cells (SMCs).
The outward currents were, elicited in rat tail arterial SMCs by superfusing extracellular solution under whole cell recording configuration that the depolarizing pulse were applied from −30 mV to +100 mV with the holding potential of −40 mV in 100 ms, 10 mV clamp steps, a frequency of 5 KHz. The compounds were applied in the bath at the concentrations of 100 μmol L^−1. The amplitude of the outward potassium currents was recorded before and after compound application Values were expressed as means±SD. Statistical significance between two groups was evaluated by student's t-test for paired data * P<0.05 **P<0.01 vs control.
1. Preparation of single smooth muscle cells from rat tail arteries: Male Wistar rats (200-250 g) were killed by exsanguination. The tail artery was dissected out and transferred into cold physiological salt solution (PSS) of the following composition (in mM): NaCl 118.3, KCl 4.7, KH2PO4 1.2, MgSO4 1.2, NaHCO3 25.0, CaCl2 2.5, EDTA 0.026 and Glucose 5.0 pH7.4. With the use of a dissecting microscope, the connective tissues were removed and the artery was cut open longitudinally. Endothelium was removed carefully with a cotton swab then the artery was cut into segments with 1 mm long and placed in 4° C. the extracellular solution containing (in mM) NaCl 130, KCl 5, MgCl2 1.2, HEPES 10, Glucose 10, pH7.2 for 20 min. After this incubation, the medium was changed to enzyme solution which was composed of collagenase I (1 mg ml^−1), papain (5 mg ml^−) and bovine serum albumin (2 mg ml^−1). The tissues, were incubated in this solution for 40 min, and then rinsed three times triturated using a fire-polished Pasteur pipette until the medium turned cloudily. The cell suspension was stored in the refrigerator at 4° C.
3. Whole cell recordings: A bath dish with the smooth muscle cells (SMCs) attached and superfused with the extracellular solution at a flow rate of 2 ml min^−1 was mounted onto the stage of an inverted-phase contrast microscope. The microelectrodes having a resistance of (5-8 MΩ) were made from boroscilicate thin-wall glass capillaries, using an automatic multiple-stage, electronic puller (PP830 Japan) and then heat-polished. After establishing a high resistance seal, the patch membrane was disrupted by negative pressure. A commercial patch clamp amplifier (Axon 200B) was used to generate and apply voltages and sample current signals from the cell.

T1 sequence (Q63563 1-1545 isoform Q63563-2): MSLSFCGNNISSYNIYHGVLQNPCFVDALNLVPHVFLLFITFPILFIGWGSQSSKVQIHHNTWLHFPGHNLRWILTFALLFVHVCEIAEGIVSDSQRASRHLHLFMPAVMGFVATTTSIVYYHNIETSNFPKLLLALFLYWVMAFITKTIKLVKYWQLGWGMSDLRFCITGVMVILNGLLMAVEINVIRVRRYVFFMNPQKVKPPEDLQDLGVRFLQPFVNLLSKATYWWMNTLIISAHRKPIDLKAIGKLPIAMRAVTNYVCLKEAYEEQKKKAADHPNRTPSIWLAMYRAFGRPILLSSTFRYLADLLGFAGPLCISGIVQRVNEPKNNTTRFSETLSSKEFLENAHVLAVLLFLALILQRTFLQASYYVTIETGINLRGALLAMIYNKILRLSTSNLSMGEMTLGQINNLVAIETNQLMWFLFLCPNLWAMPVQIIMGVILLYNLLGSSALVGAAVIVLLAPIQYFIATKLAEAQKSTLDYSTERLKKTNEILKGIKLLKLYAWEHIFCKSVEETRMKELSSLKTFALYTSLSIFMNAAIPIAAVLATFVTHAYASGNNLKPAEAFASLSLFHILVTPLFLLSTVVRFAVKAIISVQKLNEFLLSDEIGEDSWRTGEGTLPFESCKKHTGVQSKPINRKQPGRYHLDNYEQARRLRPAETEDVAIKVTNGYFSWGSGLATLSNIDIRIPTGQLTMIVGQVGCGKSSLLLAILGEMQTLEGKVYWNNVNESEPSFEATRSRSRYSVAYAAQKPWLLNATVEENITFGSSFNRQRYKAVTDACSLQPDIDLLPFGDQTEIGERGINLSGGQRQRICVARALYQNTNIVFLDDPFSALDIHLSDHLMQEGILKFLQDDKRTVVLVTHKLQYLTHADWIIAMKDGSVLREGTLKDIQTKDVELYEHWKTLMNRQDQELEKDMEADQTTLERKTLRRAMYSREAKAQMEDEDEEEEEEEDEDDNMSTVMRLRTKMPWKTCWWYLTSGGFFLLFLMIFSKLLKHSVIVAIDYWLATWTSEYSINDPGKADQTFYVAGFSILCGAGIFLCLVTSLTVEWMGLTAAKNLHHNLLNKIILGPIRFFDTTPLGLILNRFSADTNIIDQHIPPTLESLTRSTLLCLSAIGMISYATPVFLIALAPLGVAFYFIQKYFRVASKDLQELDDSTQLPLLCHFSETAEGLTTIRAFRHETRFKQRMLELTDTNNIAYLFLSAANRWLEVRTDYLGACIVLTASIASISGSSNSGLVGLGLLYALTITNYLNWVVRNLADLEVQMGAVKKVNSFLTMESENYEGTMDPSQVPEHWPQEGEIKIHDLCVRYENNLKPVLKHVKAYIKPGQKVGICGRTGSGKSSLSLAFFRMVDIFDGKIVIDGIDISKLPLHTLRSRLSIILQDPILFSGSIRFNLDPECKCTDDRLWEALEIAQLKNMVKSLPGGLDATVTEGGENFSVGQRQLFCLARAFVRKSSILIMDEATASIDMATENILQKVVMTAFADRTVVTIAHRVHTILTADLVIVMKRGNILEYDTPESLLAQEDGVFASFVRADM
T1 sequence (Q63664 whole entry partner): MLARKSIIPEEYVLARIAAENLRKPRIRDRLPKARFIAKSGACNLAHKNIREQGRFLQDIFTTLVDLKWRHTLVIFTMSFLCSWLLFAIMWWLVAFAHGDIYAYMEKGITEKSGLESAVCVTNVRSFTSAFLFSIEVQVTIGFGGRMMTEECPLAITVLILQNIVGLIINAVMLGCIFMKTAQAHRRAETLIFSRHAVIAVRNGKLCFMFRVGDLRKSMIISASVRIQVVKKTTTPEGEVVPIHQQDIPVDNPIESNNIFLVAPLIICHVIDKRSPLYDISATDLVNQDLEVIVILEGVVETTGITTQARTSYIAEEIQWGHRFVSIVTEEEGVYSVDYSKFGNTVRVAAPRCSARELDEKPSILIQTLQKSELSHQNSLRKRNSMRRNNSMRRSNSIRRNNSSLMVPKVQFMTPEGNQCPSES

CC(C)NC(C)(C)C(C)C [compound 1, N-(1-methylethyl)-2,3-dimethyl-2-butylamine]
Association kinetics kobs of [^3H]P1075 binding [1]: 2.44 ± 0.80 ×10^−2 nM^−1 · min^−1
Currents, Control (before compound application) [2]: 0.41 ± 0.08 nA
